The data set can be described thus: Agilent ZORBAX Eclipse Plus C18, 150 × 2.1 mm, 3.5 µm, 0.2 mL/min, estimated dead time 1.7 min; A: water + 0.1% formic acid; B: acetonitrile; gradient (min/%B) 0/10 20/54 23/100 32/100. The following applies: stereoisomer not certain.

With `CC(C)(OC1OC(CO)C(O)C(O)C1O)C1CCC(CO)(C(O)CO)O1` (stereo not given), the LC retention time is 23.6 min.
As for `CC(C)=CCc1c(O)cc(O)c2c(=O)c3ccc(O)c(O)c3oc12`, the figure is 28.8 min; as for `CCC(C)C(=O)c1c(O)c(C)c(OCC=C(C)CCC=C(C)C)c(C(C)=O)c1O` (stereo not given), 15.4 min; as for `CC1(C)C=Cc2c(cc(O)c3c(=O)c4cccc(O)c4oc23)O1`, 29 min.
As for `O=C(C=Cc1ccc(O)c(O)c1)OC1C(O)CC(O)(C(=O)O)CC1O` (stereo not given), the figure is 6.6 min.
As for `O=c1c(-c2c(O)cc(O)c3c(=O)cc(-c4ccc(O)cc4)oc23)c(-c2ccc(O)cc2)oc2cc(O)cc(O)c12`, the figure is 13.6 min.
With `CC1OC(OCC2OC(Oc3c(-c4ccc(O)c(O)c4)oc4cc(O)cc(O)c4c3=O)C(O)C(O)C2O)C(O)C(O)C1O` (stereo not given), the LC retention time is 9.7 min.
As for `COc1ccc2ccc(=O)oc2c1CC=C(C)C`, the figure is 26 min.
Consider `CC1OC(Oc2c(-c3ccc(O)c(O)c3)oc3cc(O)cc(O)c3c2=O)C(O)C(O)C1O` (stereo not given), for which the LC retention time was 9.9 min.
As for `O=c1c(OC2OC(CO)C(O)C(O)C2O)c(-c2ccc(O)c(O)c2)oc2cc(O)cc(O)c12` (stereo not given), the figure is 8.8 min; as for `O=C1CC(c2ccc(O)cc2)Oc2cc(O)cc(O)c21` (stereo not given), 15 min.
As for `CC1(C)C=Cc2c(cc(O)c3c(=O)c4ccc(O)c(O)c4oc23)O1`, the figure is 15.6 min.
As for `COc1cc(C=CC(=O)O)cc(OC)c1O`, the figure is 15.2 min.
On to `O=c1c(O)c(-c2ccc(O)c(O)c2)oc2cc(O)cc(O)c12`, for which the LC retention time was 10.6 min.
As for `COc1cc2oc(-c3ccccc3)c(OC)c(=O)c2c(OC)c1OC`, the figure is 15.9 min; as for `O=c1cc(-c2ccc(O)c(-c3c(O)cc(O)c4c(=O)cc(-c5ccc(O)cc5)oc34)c2)oc2cc(O)cc(O)c12`, 14.9 min.
As for `Cc1c(O)c(CC2=C(O)C(C)(C)C(=O)C(C(=O)C(C)C)=C2O)c(O)c(C(=O)C(C)C)c1O`, the figure is 20.1 min; as for `O=C(C=Cc1ccc(O)c(O)c1)OC1CC(O)(C(=O)O)CC(O)C1O` (stereo not given), 5.2 min; as for `O=c1c(O)c(-c2ccc(O)cc2)oc2cc(O)cc(O)c12`, 13.5 min.
As for `O=C(O)C1OC(Oc2c(-c3ccc(O)c(O)c3)oc3cc(O)cc(O)c3c2=O)C(O)C(O)C1O` (stereo not given), the figure is 9.3 min.
For the molecule `O=C1c2c(O)cc(O)cc2OC(c2ccc(O)c(O)c2)C1O` (stereo not given), the LC retention time is 11.6 min.
`C=C(C)C1CC=C2C(O)CC(O)C(C)C2(C)C1` (stereo not given): the LC retention time is 31.6 min.
As to `O=c1ccc2ccc(O)cc2o1`, the LC retention time was 20.5 min.
As for `COc1c(-c2ccc(O)c(O)c2)oc2cc(O)cc(O)c2c1=O`, the figure is 12.2 min; as for `COc1ccc2ccc(=O)oc2c1`, 22.7 min; as for `CC(C)=CCCC(C)=CCc1c(O)c(CC2=C(O)C(C)(C)C(=O)C(C(=O)C(C)C)=C2O)c(O)c(C(=O)C(C)C)c1O`, 18.3 min.
As for `CC1OC(Oc2cc(O)c3c(=O)c(O)c(-c4ccc(O)cc4)oc3c2)C(O)C(O)C1O` (stereo not given), the figure is 10.2 min; as for `O=C(O)C1(O)CC(O)C(O)C(O)C1` (stereo not given), 3.1 min; as for `CCC(C)C(=O)c1c(O)c(C)c(O)c(CC2=C(O)C(C)(C)C(=O)C(C(=O)C(C)C)=C2O)c1O` (stereo not given), 18.4 min.
As for `O=C1c2c(O)cc(O)cc2OC(c2ccc(O)cc2)C1O` (stereo not given), the figure is 14 min; as for `COc1cc(O)c2c(=O)c(O)c(-c3ccc(O)cc3)oc2c1`, 12.5 min.
For `COc1ccc2c(=O)c3cccc(O)c3oc2c1`, the LC retention time is 25.7 min.
As for `CC(C)=CCC1CC2(CC=C(C)C)C(=O)C(=C(O)c3ccccc3)C(=O)C(CC=C(C)C)(C2=O)C1(C)C` (stereo not given), the figure is 20.4 min; as for `O=c1c2cccc(O)c2oc2cc(O)cc(O)c12`, 26.9 min.
In the case of `CC1=CC(=O)CC(C)(C)C1(O)C=CC(C)OC1OC(CO)C(O)C(O)C1O` (stereo not given), the LC retention time was 10.3 min.

The values above are taken from the RepoRT retention time repository (doi:10.1016/j.jpba.2019.06.042).
